The source of these data is patent US7524510B2, “Alkyl-glycoside enhanced vaccination” (The UAB Research Foundation, priority 2005, dated 2009).

The subject of assay [1] is mice. The assay is described as follows: Enhancement of potency of E. coli-vectored epicutaneous vaccine, co-administered without ablation of the stratum corneum. In kind it is in vivo, mouse. The following applies: topical E. coli vector expressing tetC mixed with TDM, skin not ablated by brushing, sera 2 months postimmunization. The method, then: Preliminary tests of the ability of tetradecyl-β-D maltoside (purchased from Anatrace) to enhance the potency of an E. coli-vectored epicutaneous vaccine when co-administered without ablation of the stratum corneum were conducted. Specifically, mice were immunized by topical application of an E. coli vector expressing tetC mixed with TDM at the indicated concentration and sera were analyzed 2 months postimmunization.

A further assay relates to Mouse skin. Nature of the assay: Permeabilization of stratum corneum, electron microscopy of cutaneous architecture. The format is in vivo. Particulars: mouse skin ablated by mechanical brushing, topical TDM incubated 15 min with naked skin. The procedure:
Mouse skin was ablated by mechanical brushing prior to topical application of TDM, followed by incubation of TDM at the indicated concentration with naked skin for 15 min, followed by examination of the cutaneous architecture under an electron microscope.

The subject of assay [2] is mice. Nature of the assay: Enhancement of potency of adenovirus-vectored epicutaneous vaccine, co-administered without ablation of the stratum corneum. The format is in vivo, mouse. Particulars: topical adenovirus vector expressing tetC mixed with TDM, no ablation of stratum corneum, sera 1 month postimmunization. The method, then: Tests of the ability of TDM to enhance the potency of an adenovirus-vectored epicutaneous vaccine when co-administered without ablation of the stratum comeum were also conducted. Here, mice were immunized by topical application of an adenovirus vector expressing tetC mixed with TDM at the indicated concentration, and sera were analyzed 1 month postimmunization.

Regarding `CCCCCCCCCCCCCCO[C@@H]1O[C@H](CO)[C@@H](O[C@H]2O[C@H](CO)[C@@H](O)[C@H](O)[C@H]2O)[C@H](O)[C@H]1O` [TDM, tetradecyl-β-D-maltoside], in the assay on mice [1], the “enhancement of the potency of an E. coli-vectored epicutaneous vaccine (sera analyzed)” value is “No increase over the control”. Besides, the “effect on stratum corneum (cutaneous architecture under electron microscope)” value with Mouse skin is given as “permeablization of the stratum comeum”. Besides, the “enhancement of the potency of an adenovirus-vectored epicutaneous vaccine (sera analyzed)” value in the assay on mice [2] is given as “No significant increase over the control”.
